Experimental data published in paper PMC8794153, “Access to highly specialized growth substrates and production of epithelial immunomodulatory metabolites determine survival of Haemophilus influenzae in human airway epithelial cells” (PLoS Pathogens, 2022).

What was measured:
[1] = system: LldD L-lactate dehydrogenase; details: read-out: KM_app; DCPIP 0.1 mM electron acceptor, PMS 0.25 mM, MgCl2 2 mM, phosphate pH 7.4, 37 °C
LdhA = system: T1, LdhA; experiment: NADH oxidation at […] nm, cell-free extract; format: cell-based, Haemophilus influenzae; details: Tris-Cl pH 7.5, 37 °C
T1 construct: native soluble enzyme in cell-free extract of Hi2019; not purified; no tag

C[C@H](O)C(=O)O [L-lactate]
Km [1]: 300 ± 30 µM

NC(=O)C1=CN([C@@H]2O[C@H](COP(=O)(O)OP(=O)(O)OC[C@H]3O[C@@H](n4cnc5c(N)ncnc54)[C@H](O)[C@@H]3O)[C@@H](O)[C@H]2O)C=CC1 [NADH]
Km (LdhA; pyruvate co-substrate (std. 10 mM)): 55 ± 3 µM

CC(=O)C(=O)O [pyruvate]
Km (LdhA; NADH co-substrate): 3380 ± 840 µM
